In US20240306642A1, “Herbicidal Compositions” (SYNGENTA CROP PROTECTION AG, priority 2021, published 2024):

Tests used:
Format in all cases: in vivo
Setaria faberi (SETFA) = test: Post-emergence efficacy, Setaria faberi; conditions: 15DAA, rate 3 g/ha, 100=total damage to plant, 0=no damage
Source text: (§1) When active ingredients are combined, the activity to be expected (E) for any given active ingredient combination obeys the so-called Colby Formula and can be calculated as follows (Colby, S. R., Calculating synergistic and antagonistic responses of herbicide combination, Weeds, Vol. 15, pages 20-22; 1967): • ppm =milligrams of active ingredient (a.i.) per litre • X=% action by first active ingredient using p ppm of the active ingredient • Y=% action by second active ingredient using q ppm of the active ingredient.
(§2) According to Colby, the expected action of active ingredients A+B using p+q ppm of active ingredient is represented by the following formula: […]
If the action actually observed (O) is greater than the expected action E then the action of the combination is super-additive, i.e. there is a synergistic effect. […]
(§3) The efficacy of various compositions of the present invention were tested against plants including the following species: Echinochloa crus-gali (ECHCG), Lolium multiflorum(LOLMU), Setaria faberi (SETFA) and Digitaria insularis (TRCIN). The compositions are applied post-emergence, and the tests evaluated at certain days-after-application (DAA) as indicated. The tests were evaluated (100=total damage to plant; 0=no damage to plant), and the results are shown below in Tables B1 to B4.

[1] = tested on: Lolium multiflorum (LOLMU); test: Post-emergence efficacy, Lolium multiflorum; conditions: 15DAA
Source text: as §1, §2
(§4) If the action actually observed (O) is greater than the expected action E then the action of the combination is super-additive, i.e. there is a synergistic effect. In mathematical terms, synergism corresponds to a positive value for the difference of (O-E). In the case of purely complementary addition of activities (expected activity), said difference (O-E) is zero. A negative value of said difference (O-E) signals a loss of activity compared to the expected activity.
as §3

[2] = tested on: Echinochloa crus-gali (ECHCG); test: Post-emergence efficacy, Echinochloa crus-gali; conditions: 16DAA
Source text: as §1, §2, §4, §3

[3] = tested on: Digitaria insularis (TRCIN); test: Post-emergence efficacy, Digitaria insularis; conditions: 13DAA
Source text: as §1, §2, §4, §3

[4] = rate 1.88 g/ha, 100=total damage, 0=no damage

CCSC(C)CC1CC(=O)C(/C(CC)=N/OC/C=C/Cl)=C(O)C1 (stereo not shown) [Formula B1, clethodim]
Observed (Setaria faberi (SETFA)): 25

CCCCOC(=O)[C@@H](C)Oc1ccc(Oc2ccc(C(F)(F)F)cn2)cc1 [Formula B4a, fluazifop-P-butyl]
Observed ([1]; rate 8 g/ha): 68

COC(=O)[C@@H](C)Oc1ccc(Oc2ncc(C(F)(F)F)cc2Cl)cc1 [Formula B5a, haloxyfop-P-methyl]
Observed ([2]; rate 8 g/ha): 13

CCc1cc(C)cc(CC)c1-c1c(OC(=O)C(C)(C)C)n2n(c1=O)CCOCC2 [Formula B6, pinoxaden]
Observed ([3]; rate 0.94 g/ha): 0
Observed [3, 4]: 20

CC#Cc1ccc(C2=C(OC(=O)OC)C3CCC(C3)C2=O)c(OC)c1 (stereo not shown) [Ic]
Observed ([1]; rate 6.25 g/ha, 100=total damage, 0=no damage): 44
Observed ([1]; rate 12.5 g/ha): 59
Observed ([2]; rate 3.125 g/ha, 100=total damage, 0=no damage): 30
Observed ([2]; rate 6.25 g/ha): 88
Observed [3, 4]: 48
